Measured values reported in patent US10253368B2, “Molecular signatures of ovarian cancer” (Cedars-Sinai Medical Center, priority 2012, dated 2019).

Key:
LOX = conditions: xenograft and transgenic mouse models; cited from earlier work
osteosarcoma = conditions: mouse model of osteosarcoma; cited from earlier work
TGFβ = conditions: mouse xenografts; cited from earlier work
[1] = test system: ovarian cancer cell line OVCAR3; test: TGFβ1 induction of the 10 poor outcome signature genes (mRNA) in OVCAR3 cells; type: cell-based, human
Source text: (§1) FIG. 13(A) to FIG. 13(C). Regulation of the poor outcome signature genes by TGFβ signaling. (A) Ingenuity Pathway Analysis of the 61 genes present in at least two of the three discovery signatures of poor outcome. Genes that are present in all three discovery signatures are circled in red. (B) Top upstream regulators of the 61 poor outcome genes. (C) Induction of the 10 poor outcome signature genes by TGFβ1 in the ovarian stromal cell line TRS3 and the ovarian cancer cell line OVCAR3. Cells were treated with TGFβ1 (10 ng/ml) for 48 hours (TRS3) or 1-3 hours (OVCAR3) with or without pre-treatment with the TGFβ1 receptor inhibitor, A83-01. Shown is the relative fold change of the mRNA levels compared to untreated control cells. Data are presented as the mean+/−SEM in triplicate samples. * indicates P<0.05. Data are representative of at least three independent experiments.
FIG. 26. Induction of the 10 poor outcome signature genes by TGFβ1. OVCAR3 (OV3) cells were treated with 10 ng/ml TGFβ1 (B1) for either 1 hour or 3 hours with (OV3+B1+A) or without (OV3+B1) pre-treatment with the TGFβ inhibitor, A83-01.
(§2) To validate the predicted regulation of the poor outcome genes by TGFβ1, the Inventors treated the human ovarian stromal cell line TRS3 and the ovarian cancer cell line OVCAR3 with TGFβ1 and measured mRNA expression of the 10 poor outcome genes before and after TGFβ1 treatment.
(§3) Importantly, The Inventors included the ovarian stromal cell line since many of our poor outcome genes are thought to be expressed in stromal cells. […] To further validate that this induction was mediated by TGFβ1 signaling, the Inventors measured expression of the 10 genes in cells pre-treated with the TGFβ1 receptor inhibitor A83-01 before adding TGFβ1.
To learn more about the possible upstream regulators of the signature genes, the Inventors applied Ingenuity Pathway Analysis to the 61 signature genes in FIG. 12A and identified TGFβ1, TGFβ2, TGFβ3, SMAD3, and SMAD7 as top transcription factors regulating in expression of the signature genes.

[2] = test system: ovarian stromal cell line TRS3; test: TGFβ1 induction of the 10 poor outcome signature genes (mRNA) in TRS3 cells; type: cell-based, human
Source text: as §1, with “Data are presented as the mean+/−SEM in triplicate samples. * indicates P<0.05. Data are representative of at least three independent experiments.” left out
as §2, §3

[3] = test system: ADAM12 mRNA in TRS3 cells; test: Quantitative real-time PCR of ADAM12 mRNA in TRS3 cells with recombinant TGFβ1; type: cell-based, human; conditions: recombinant TGFβ1 10 ng/ml, 48 hours
Source text: FIG. 37(A) to FIG. 37(C). ADAM12 expression in epithelial and stromal cells in patient tumors and different culture conditions. (A) Representative localization of ADAM12 protein (immunohistochemistry; brown staining) and mRNA (in situ hybridization; brown dots) in ovarian tumor sections from HGSOC patients. Size bar for both photographs=50 μm. (B) and (C) Quantitative real-time PCR of the ADAM12 mRNA in the TRS3 ovarian stromal cell line and OVCAR3 ovarian cancer cell line alone or in co-culture in the presence or absence of 10 ng/ml of recombinant TGFβ1. TRS3 stromal cells and GFP-labelled OVCAR3 cancer cells were co-cultured using an insert (insert) or in direct contact (direct) for 48 hours and sorted by FACS before RNA isolation. The top cell line on the x axis represents the cell line from which RNA was isolated. The y axis indicates 2^−ΔCt value. Data indicates mean+/−SEM.
The OVCAR3 ovarian cancer cell line was obtained from Dennis Slamon (University of California, Los Angeles) and its authenticity was confirmed by Laragen using the short tandem repeat (STR) method. […]
Total RNA was extracted using the RNeasy mini kit (Qiagen) and was reverse-transcribed to cDNA using the QuantiTect Reverse Transcription Kit (Qiagen). […] The qRT-PCR reaction was performed using an iCycler thermo cycler (Bio Rad) and the data were analyzed by the 2-ΔCT method. […]

[4] = pre-treatment before TGFβ1 10 ng/ml

## N#CCCN [β-aminopropionitrile]
LOX
  Tumor metastasis: inhibited

## collagenase
osteosarcoma
  Uptake and distribution of monoclonal antibodies: increased

## Cc1cccc(-c2nn(C(=S)Nc3ccccc3)cc2-c2ccnc3ccccc23)n1 [A83-01, reference compound]
TGFβ
  Tumor growth: reduce tumor growth
[1]; [4]
  TGFβ1-induced expression of the 10 genes in cells pre-treated with inhibitor: abrogated
[2]; [4]
  TGFβ1-induced expression of the 10 genes in cells pre-treated with inhibitor: abrogated

## TGFβ1: recombinant TGFβ1 (Sigma), growth factor used at 10 ng/ml
[3]
  Increase of ADAM12 levels in TRS3 cells: approximately 10 fold
[1]; TGFβ1 10 ng/ml, 1-3 hours, most of the 10 genes
  mRNA expression of the 10 poor outcome genes after TGFβ1 treatment: induced
[1]; after 1 hour of treatment with TGFβ1
  Expression of COL5A1 and SNAI2: markedly induced
[1]; after 3 hours of treatment with TGFβ1
  Expression of the remaining 8 genes: induced
[2]; TGFβ1 10 ng/ml, 48 hours, most of the 10 genes
  mRNA expression of the 10 poor outcome genes after TGFβ1 treatment: induced
